Measurements published in patent US20260109707A1, “HETEROBIFUNCTIONAL COMPOUNDS AND METHODS OF TREATING DISEASE” (Halda Therapeutics OpCo. Inc., priority 2022, published 2026).
Where two headings read alike, the source gives them in different places.

Tests used:
[1] = tested on: T-Rex 293 cell line SC3 cells having increased expression of androgen receptor protein due to exposure to doxycycline; assay: Cellular growth inhibition assay, T-Rex 293 SC3 cells with doxycycline (CellTiter-Glo, 72 hours); assay type: cell-based; settings: T-Rex 293 SC3 cells with increased androgen receptor expression due to doxycycline (10 ng/mL)
Outline: (§1)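 Growth inhibition is measured in an inducible AR-expressing T-Rex 293 clone, SC3, cultured with or without 10 ng/mL doxycycline in hormone-depleted medium. Test compounds are applied for 72 hours. GI50 values derive from CellTiter-Glo 2.0 signal fitted by four-parameter regression.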

[2] = tested on: T-Rex 293 cell line SC3 cells lacking increased expression of androgen receptor protein; assay: Cellular growth inhibition assay, T-Rex 293 SC3 cells without doxycycline (CellTiter-Glo, 72 hours); assay type: cell-based; settings: T-Rex 293 cell line SC3 cells not exposed to doxycycline (lacking increased androgen receptor expression)
Outline: as §1

VCaP cells = assay: Cellular growth inhibition assay for VCaP cells (CellTiter-Glo, 72 hours); assay type: cell-based, human
Outline: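 Luminescent viability signal after 72 h of compound exposure gave GI50 values by four-parameter nonlinear regression. Compounds were added in 0.5% DMSO to cells plated 24 h earlier at 5000/well in DMEM containing 10% FBS.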

T47D cells = assay: Cellular growth inhibition assay for T47D cells (CellTiter-Glo, 72 hours); assay type: cell-based, human; settings: 72 hours treatment
Outline: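 Cells are plated at 3000/well and allowed 24 h before treatment. Test compound in medium containing 0.5% DMSO is then added, with DMSO-only wells as negative control, and plates are incubated 72 h at 37 °C. ATP luminescence (CellTiter-Glo 2.0) is then fitted to four parameters to derive GI50.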

Row | Structure (SMILES) | GI50 (VCaP cells; Homo sapiens, VCaP, 72 h) | GI50 (T47D cells; Homo sapiens, T47D, 72 h) | GI50 (VCaP cells) | GI50 (T47D cells) | GI50 ([1]; 72 h) | GI50 ([2]; 72 h) | GI50 [1] | GI50 [2]
1 | Cc1sc2c(c1C)C(c1ccc(C(C)(C)N3CC4(CCCN(c5ccc(C(=O)N[C@H]6CC[C@H](Oc7ccc(C#N)c(Cl)c7)CC6)nn5)C4)C3)cc1)=N[C@@H](Cc1ncco1)c1nnc(C)n1-2 [I-392] | 0.5 to 1.5 µM | > 3 µM |  |  | < 0.5 µM | > 3 µM |  | 
2 | Cc1sc2c(c1C)C(c1ccc(N3CCC4(CCCN(c5ccc(C(=O)N[C@H]6CC[C@H](Oc7ccc(C#N)c(Cl)c7)CC6)nn5)C4)CC3)cc1)=NC1(CC1)c1nnc(C)n1-2 [I-398] | 1.5 to 3 µM | > 3 µM |  |  | < 0.5 µM | > 3 µM |  | 
3 | Cc1sc2c(c1C)C(c1ccc(N3CCC4(CC3)CCN(c3ccc(C(=O)N[C@H]5CC[C@H](Oc6ccc(C#N)c(Cl)c6)CC5)nn3)C4)cc1)=NCc1nnc(C)n1-2 [I-400] | 1.5 to 3 µM | > 3 µM |  |  | < 0.5 µM | 0.5 to 1.5 µM |  | 
4 | Cc1sc2c(c1C)C(c1ccc(CCC3CCC4CN(c5ccc(C(=O)N[C@H]6CC[C@H](Oc7ccc(C#N)c(Cl)c7)CC6)nn5)CCN4C3)cc1)=NC(Cc1ncco1)c1nnc(C)n1-2 (stereo partly shown) [I-401] |  |  | > 3 µM | > 3 µM |  |  | > 3 µM | > 3 µM
5 | Cc1sc2c(c1C)C(c1ccc(CCC3CCC4CN(c5ccc(C(=O)N[C@H]6CC[C@H](Oc7ccc(C#N)c(Cl)c7)CC6)nn5)CCN4C3)cc1)=NC(Cc1ncco1)c1nnc(C)n1-2 (stereo partly shown) [I-402] |  |  | > 3 µM | > 3 µM |  |  | < 0.5 µM | > 3 µM
6 | Cc1sc2c(c1C)C(c1ccc(CCC3CCC4CN(c5ccc(C(=O)N[C@H]6CC[C@H](Oc7ccc(C#N)c(Cl)c7)CC6)nn5)CCN4C3)cc1)=NC(Cc1ncco1)c1nnc(C)n1-2 (stereo partly shown) [I-403] |  |  | < 0.5 µM | < 0.5 µM |  |  | < 0.5 µM | < 0.5 µM
7 | Cc1sc2c(c1C)C(c1ccc(CCC3CCC4CN(c5ccc(C(=O)N[C@H]6CC[C@H](Oc7ccc(C#N)c(Cl)c7)CC6)nn5)CCN4C3)cc1)=NC(Cc1ncco1)c1nnc(C)n1-2 (stereo partly shown) [I-404] |  |  | < 0.5 µM | < 0.5 µM |  |  | < 0.5 µM | < 0.5 µM
8 | CC1=NN=C2C1c1sc(C)c(C)c1C(c1ccc(C3CCC4(CC3)CCN(c3ccc(C(=O)N[C@H]5CC[C@H](Oc6ccc(C#N)c(Cl)c6)CC5)nn3)CC4)cc1)=N[C@H]2Cc1ncco1 (stereo partly shown) [I-409] | > 3 µM | > 3 µM |  |  | > 3 µM | > 3 µM |  | 
9 | Cc1sc2c(c1C)C(c1ccc(CCC[C@@H]3CCCN(c4ccc(C(=O)N[C@H]5CC[C@H](Oc6ccc(C#N)c(Cl)c6)CC5)nn4)CC3)cc1)=N[C@@H](Cc1ncco1)c1nnc(C)n1-2 [I-411] | < 0.5 µM | < 0.5 µM |  |  | < 0.5 µM | < 0.5 µM |  | 
10 | Cc1sc2c(c1C)C(c1ccc(-c3ccc(C4CC5(C4)CN(c4ccc(C(=O)N[C@H]6CC[C@H](Oc7ccc(C#N)c(Cl)c7)CC6)nn4)C5)cc3)cc1)=N[C@@H](Cc1ncco1)c1nnc(C)n1-2 [I-412] | 0.5 to 1.5 µM | < 0.5 µM |  |  | < 0.5 µM | < 0.5 µM |  | 
11 | Cc1sc2c(c1C)C(c1ccc(N3CCN(C4CCN(c5ccc(C(=O)N[C@H]6CC[C@H](Oc7ccc(C#N)c(Cl)c7)CC6)nn5)CC4)C3=O)cc1)=NC(Cc1ncco1)c1nnc(C)n1-2 (stereo partly shown) [I-413] |  |  | 1.5 to 3 µM | 1.5 to 3 µM | < 0.5 µM |  |  | > 3 µM
12 | Cc1sc2c(c1C)C(c1ccc(N3CCN(C4CCN(c5ccc(C(=O)N[C@H]6CC[C@H](Oc7ccc(C#N)c(Cl)c7)CC6)nn5)CC4)C3=O)cc1)=NC(Cc1ncco1)c1nnc(C)n1-2 (stereo partly shown) [I-414] |  |  | < 0.5 µM | < 0.5 µM |  |  | < 0.5 µM | < 0.5 µM
13 | Cc1sc2c(c1C)C(c1ccc(N3CCC4(CC3)CC(Cc3ccc(C(=O)N[C@H]5CC[C@H](Oc6ccc(C#N)c(Cl)c6)CC5)nn3)C4)cc1)=NC(Cc1ncco1)c1nnc(C)n1-2 (stereo partly shown) [I-415] | < 0.5 µM | 0.5 to 1.5 µM |  |  | < 0.5 µM |  |  | > 3 µM
14 | Cc1sc2c(c1C)C(c1ccc(N3CCC4(CC3)CC(Cc3ccc(C(=O)N[C@H]5CC[C@H](Oc6ccc(C#N)c(Cl)c6)CC5)nn3)C4)cc1)=NC(Cc1ncco1)c1nnc(C)n1-2 (stereo partly shown) [I-416] |  |  | < 0.5 µM | < 0.5 µM |  |  | < 0.5 µM | 0.5 to 1.5 µM
15 | Cc1sc2c(c1C)C(c1ccc(OC3CC4(CCN(c5ccc(C(=O)N[C@H]6CC[C@H](Oc7ccc(C#N)c(Cl)c7)CC6)nn5)CC4)C3)cc1)=NC1(CC1)c1nnc(C)n1-2 [I-417] | > 3 µM | 0.5 to 1.5 µM |  |  | < 0.5 µM | > 3 µM |  | 
16 | Cc1sc2c(c1C)C(c1ccc(C#CC3CC4(C3)CN(c3ccc(C(=O)N[C@H]5CC[C@H](Oc6ccc(C#N)c(Cl)c6)CC5)nn3)C4)cc1)=NC1(CC1)c1nnc(C)n1-2 [I-418] | < 0.5 µM | < 0.5 µM |  |  | < 0.5 µM | < 0.5 µM |  | 
17 | Cc1sc2c(c1C)C(c1ccc(C#CC3CC4(CCCN(c5ccc(C(=O)NC6CCC(Oc7ccc(C#N)c(Cl)c7)CC6)nn5)C4)C3)cc1)=NCc1nnc(C)n1-2 (stereo not shown) [I-419] | < 0.5 µM | < 0.5 µM |  |  | < 0.5 µM | > 3 µM |  | 
18 | Cc1sc2c(c1C)C(c1ccc(C#CC3CC4(CCCN(c5ccc(C(=O)N[C@H]6CC[C@H](Oc7ccc(C#N)c(Cl)c7)CC6)nn5)C4)C3)cc1)=NCc1nnc(C)n1-2 (stereo partly shown) [I-420] | < 0.5 µM | 1.5 to 3 µM |  |  | < 0.5 µM | > 3 µM |  | 
19 | Cc1sc2c(c1C)C(c1ccc(C#CC3CC4(C3)CN(c3ccc(C(=O)N[C@H]5CC[C@H](Oc6ccc(C#N)c(Cl)c6)CC5)nn3)C4)cc1)=NCc1nnc(C)n1-2 [I-421] | < 0.5 µM | 0.5 to 1.5 µM |  |  | < 0.5 µM | < 0.5 µM |  | 
20 | Cc1sc2c(c1C)C(c1ccc(N3CCC4(CCCN(c5ccc(C(=O)N[C@H]6CC[C@H](Oc7ccc(C#N)c(Cl)c7)CC6)nn5)C4)CC3)cc1)=NCc1nnc(C)n1-2 [I-422] | < 0.5 µM | 0.5 to 1.5 µM |  |  | < 0.5 µM | > 3 µM |  | 

Continued, in another order:

Row | GI50 (VCaP cells; Homo sapiens, VCaP, 72 h) | GI50 (T47D cells; Homo sapiens, T47D, 72 h) | GI50 (VCaP cells) | GI50 (T47D cells) | Structure (SMILES) | GI50 ([1]; 72 h) | GI50 ([2]; 72 h) | GI50 [1] | GI50 [2]
21 | < 0.5 µM | < 0.5 µM |  |  | Cc1sc2c(c1C)C(c1ccc(CC(C)(C)N3CC4(CCCN(c5ccc(C(=O)N[C@H]6CC[C@H](Oc7ccc(C#N)c(Cl)c7)CC6)nn5)C4)C3)cc1)=N[C@@H](Cc1ncco1)c1nnc(C)n1-2 [I-393] | < 0.5 µM | 1.5 to 3 µM |  | 
22 | < 0.5 µM | < 0.5 µM |  |  | CC1=NN=C2C1c1sc(C)c(C)c1C(c1ccc(C#CC3CCN(c4ccc(C(=O)N[C@H]5CC[C@H](Oc6ccc(C#N)c(Cl)c6)CC5)nn4)CC3)cc1)=N[C@H]2Cc1ncco1 (stereo partly shown) [I-394] | < 0.5 µM | < 0.5 µM |  | 
23 | < 0.5 µM | < 0.5 µM |  |  | Cc1sc2c(c1C)C(c1ccc(CCC[C@H]3CCCN(c4ccc(C(=O)N[C@H]5CC[C@H](OC6CCC(C#N)C(Cl)C6)CC5)nn4)CC3)cc1)=N[C@@H](Cc1ncco1)c1nnc(C)n1-2 (stereo partly shown) [I-395] | < 0.5 µM | < 0.5 µM |  | 
24 | < 0.5 µM | < 0.5 µM |  |  | Cc1sc2c(c1C)C(c1ccc(CCCC3CCCN(c4ccc(C(=O)N[C@H]5CC[C@H](OC6CCC(C#N)C(Cl)C6)CC5)nn4)CC3)cc1)=N[C@@H](Cc1ncco1)c1nnc(C)n1-2 (stereo partly shown) [I-396] | < 0.5 µM | < 0.5 µM |  | 
25 | < 0.5 µM | < 0.5 µM |  |  | Cc1sc2c(c1C)C(c1ccc(N3CCC4(CC3)CCN(c3ccc(C(=O)NC5CCC(Oc6ccc(C#N)c(Cl)c6)CC5)nn3)CC4)cc1)=N[C@@H](Cc1ncco1)c1nnc(C)n1-2 (stereo partly shown) [I-397] | < 0.5 µM | < 0.5 µM |  | 
26 | < 0.5 µM | 1.5 to 3 µM |  |  | Cc1sc2c(c1C)C(c1ccc(N3CCC4(CC3)CCN(c3ccc(C(=O)N[C@H]5CC[C@H](Oc6ccc(C#N)c(Cl)c6)CC5)nn3)C4)cc1)=NC1(CC1)c1nnc(C)n1-2 [I-399] | < 0.5 µM | 0.5 to 1.5 µM |  | 
27 | < 0.5 µM | < 0.5 µM |  |  | Cc1sc2c(c1C)C(c1ccc(OC[C@H]3CC[C@]4(C3)CN(c3ccc(C(=O)N[C@H]5CC[C@H](Oc6ccc(C#N)c(Cl)c6)CC5)nn3)CCO4)cn1)=N[C@@H](Cc1ncco1)c1nnc(C)n1-2 [I-405] | < 0.5 µM | < 0.5 µM |  | 
28 | < 0.5 µM | < 0.5 µM |  |  | Cc1sc2c(c1C)C(c1ccc(OC[C@H]3CC[C@@]4(CCCN(c5ccc(C(=O)N[C@H]6CC[C@H](Oc7ccc(C#N)c(Cl)c7)CC6)nn5)C4)C3)cn1)=N[C@@H](Cc1ncco1)c1nnc(C)n1-2 [I-406] | < 0.5 µM | < 0.5 µM |  | 
29 | < 0.5 µM | > 3 µM |  |  | CC1=NN=C2C1c1sc(C)c(C)c1C(c1ccc(C#CC3C4CN(c5ccc(C(=O)N[C@H]6CC[C@H](Oc7ccc(C#N)c(Cl)c7)CC6)nn5)CC34)cc1)=N[C@H]2Cc1ncco1 (stereo partly shown) [I-407] | > 3 µM | > 3 µM |  | 
30 | < 0.5 µM | < 0.5 µM |  |  | CC1=NN=C2C1c1sc(C)c(C)c1C(c1ccc(C#CC3C4CN(c5ccc(C(=O)N[C@H]6CC[C@H](Oc7ccc(C#N)c(Cl)c7)CC6)nn5)CC34)cc1)=N[C@@H]2Cc1ncco1 (stereo partly shown) [I-408] | < 0.5 µM | < 0.5 µM |  | 
31 | < 0.5 µM | < 0.5 µM |  |  | CC1=NN=C2C1c1sc(C)c(C)c1C(c1ccc(C3CCC4(CC3)CCN(c3ccc(C(=O)N[C@H]5CC[C@H](Oc6ccc(C#N)c(Cl)c6)CC5)nn3)CC4)cc1)=N[C@@H]2Cc1ncco1 (stereo partly shown) [I-410] | < 0.5 µM | < 0.5 µM |  | 
